tested on: RKO p21 uninduced (proliferating) colon adenocarcinoma cells; experiment: Alamar Blue cell viability assay, RKO p21 uninduced (proliferating); assay type: cell-based; conditions: Homo sapiens, Table B3, anti-proliferative/cytotoxic activity, 72 hours, read-out: −log EC50 RKO p21 uninduced (proliferating) (converted)
Outline: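 RKO p21 or p27 subclones grown without Ponasterone A, i.e. proliferating, exposed 24 h after seeding to semi-log compound dilutions in DMEM/10% FCS (1% DMSO controls) for 72 h at 37° C. Alamar Blue fluorescence (544/590 nm) read relative to untreated cells; EC50 from dose-response curves, given as −log EC50 (mol/l).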

Row | SMILES | EC50 [nM]
1 | C[C@@]12Cc3c([nH]c4ccc(OC(F)F)cc34)[C@@H](c3cccc(O)c3)N1C(=O)N(CCN1CCCC1)C2=O (racemic) [Example 279, (3aSR,10RS)-6-(1,1-Difluoro-methoxy)-10-(3-hydroxy-phenyl)-3a-methyl-2-(2-pyrrolidin-1-yl-ethyl)-3a,4,9,10-tetrahydro-2,9,10a-triaza-cyclopenta[b]fluorene-1,3-dione] | ≤ 39.8
2 | C[C@@]12Cc3c([nH]c4ccc(OC(F)F)cc34)[C@@H](c3cccc(O)c3)N1C(=O)N(CCN1CCCCC1)C2=O (racemic) [Example 280, (3aSR,10RS)-6-(1,1-Difluoro-methoxy)-10-(3-hydroxy-phenyl)-3a-methyl-2-(2-piperidin-1-yl-ethyl)-3a,4,9,10-tetrahydro-2,9,10a-triaza-cyclopenta[b]fluorene-1,3-dione] | 39.8 to 251
3 | C[C@@]12Cc3c([nH]c4ccc(OC(F)F)cc34)[C@@H](c3cccc(O)c3)N1C(=O)N(CCN1CC=CCC1)C2=O (racemic) [Example 281, (3aSR,10RS)-6-(1,1-Difluoro-methoxy)-2-[2-(3,6-dihydro-2H-pyridin-1-yl)-ethyl]-10-(3-hydroxy-phenyl)-3a-methyl-3a,4,9,10-tetrahydro-2,9,10a-triaza-cyclopenta[b]fluorene-1,3-dione] | 39.8 to 251
4 | C[C@@]12Cc3c([nH]c4ccc(OC(F)F)cc34)[C@@H](c3cccc(O)c3)N1C(=O)N(CCN1CCCCCC1)C2=O (racemic) [Example 282, (3aSR,10RS)-2-(2-Azepan-1-yl-ethyl)-6-(1,1-difluoro-methoxy)-10-(3-hydroxy-phenyl)-3a-methyl-3a,4,9,10-tetrahydro-2,9,10a-triaza-cyclopenta[b]fluorene-1,3-dione] | 39.8 to 251
5 | C[C@@]12Cc3c([nH]c4ccc(OC(F)F)cc34)[C@@H](c3cccc(O)c3)N1C(=O)N(CCN)C2=O (racemic) [Example 283, (3aSR,10RS)-2-(2-Amino-ethyl)-6-(1,1-difluoro-methoxy)-10-(3-hydroxy-phenyl)-3a-methyl-3a4,9,10-tetrahydro-2,9,10a-triaza-cyclopenta[b]fluorene-1,3-dione] | 39.8 to 251
6 | CCNCCN1C(=O)N2[C@H](c3cccc(O)c3)c3[nH]c4ccc(OC(F)F)cc4c3C[C@@]2(C)C1=O (racemic) [Example 284, (3aSR,10RS)-6-(1,1-Difluoro-methoxy)-2-(2-ethylamino-ethyl)-10-(3-hydroxy-phenyl)-3a-methyl-3a,4,9,10-tetrahydro-2,9,10a-triaza-cyclopenta[b]fluorene-1,3-dione] | ≤ 39.8
7 | C[C@@]12Cc3c([nH]c4ccc(OC(F)F)cc34)[C@@H](c3cccc(O)c3)N1C(=O)N(CCNCCO)C2=O (racemic) [Example 285, (3aSR,10RS)-6-(1,1-Difluoro-methoxy)-2-[2-(2-hydroxy-ethylamino)-ethyl]-10-(3-hydroxy-phenyl)-3a-methyl-3a,4,9,10-tetrahydro-2,9,10a-triaza-cyclopenta[b]fluorene-1,3-dione] | 39.8 to 251
8 | C[C@@]12Cc3c([nH]c4ccc(OC(F)F)cc34)[C@@H](c3cccc(O)c3)N1C(=O)N(CCNC1CC1)C2=O (racemic) [Example 286, (3aSR,10RS)-2-(2-Cyclopropylamino-ethyl)-6-(1,1-difluoro-methoxy)-10-(3-hydroxy-phenyl)-3a-methyl-3a,4,9,10-tetrahydro-2,9,10a-triaza-cyclpenta[b]fluorene-1,3-dione] | 39.8 to 251
9 | C#CCNCCN1C(=O)N2[C@H](c3cccc(O)c3)c3[nH]c4ccc(OC(F)F)cc4c3C[C@@]2(C)C1=O (racemic) [Example 287, (3aSR,10RS)-6-(1,1-Difluoro-methoxy)-10-(3-hydroxy-phenyl)-3a-methyl-2-(2-prop-2-ynylamino-ethyl)-3a,4,9,10-tetrahydro-2,9,10a-triaza-cyclopenta[b]fluorene-1,3-dione] | 39.8 to 251

Reference: patent publication US8530493B2, “Indolopyridines as Eg5 kinesin modulators” (4SC AG, priority 2006, dated 2013)
